These results are taken from paper PMC9555642 (PLoS ONE, 2022).

In one series the target is T1, HDAC5 (Homo sapiens, UniProt Q9UQL6).
T1 construct: purchased Eurofins Pharma Discovery Services 2494
Description: HDAC enzymatic activity (Eurofins). In kind it is biochemical. Particulars: Class IIA; ACY-1083 mean of two separate measurements, Ricolinostat and Tubastatin A one measurement.

The nature of series [1]: Plasma protein binding, human blood plasma. In kind it is in vitro ADME. The procedure: Plasma protein binding analysis was performed as reported previously using human blood plasma samples [52].
Series [2] in a line: Spike test in ALI cell media (stability and binding to plastic and media components). In kind it is in vitro ADME. As to the method:
Compound concentration was then analysed after 18hrs incubation at 37 °C by LC-MSMS (Method DMPK&BAC 001–04).

A further series concerns the target T2, hERG (Homo sapiens, UniProt Q12809).
T2 construct: expressed in transfected cells; host or cells: Chinese hamster ovary K1 cell line
Description: Cardiovascular ion channel panel, SyncroPatch 384PE patch clamp. The settings on record: CHO K1 cell line, room temperature, 6 point cumulative assay. In kind it is cell-based.

A further series deals with T3, Kv4.3 (Homo sapiens, UniProt Q9UK17).
T3 construct: expressed in transfected cells; host or cells: Chinese hamster ovary K1 cell line
T3 sequence (Q9UK17 1-655): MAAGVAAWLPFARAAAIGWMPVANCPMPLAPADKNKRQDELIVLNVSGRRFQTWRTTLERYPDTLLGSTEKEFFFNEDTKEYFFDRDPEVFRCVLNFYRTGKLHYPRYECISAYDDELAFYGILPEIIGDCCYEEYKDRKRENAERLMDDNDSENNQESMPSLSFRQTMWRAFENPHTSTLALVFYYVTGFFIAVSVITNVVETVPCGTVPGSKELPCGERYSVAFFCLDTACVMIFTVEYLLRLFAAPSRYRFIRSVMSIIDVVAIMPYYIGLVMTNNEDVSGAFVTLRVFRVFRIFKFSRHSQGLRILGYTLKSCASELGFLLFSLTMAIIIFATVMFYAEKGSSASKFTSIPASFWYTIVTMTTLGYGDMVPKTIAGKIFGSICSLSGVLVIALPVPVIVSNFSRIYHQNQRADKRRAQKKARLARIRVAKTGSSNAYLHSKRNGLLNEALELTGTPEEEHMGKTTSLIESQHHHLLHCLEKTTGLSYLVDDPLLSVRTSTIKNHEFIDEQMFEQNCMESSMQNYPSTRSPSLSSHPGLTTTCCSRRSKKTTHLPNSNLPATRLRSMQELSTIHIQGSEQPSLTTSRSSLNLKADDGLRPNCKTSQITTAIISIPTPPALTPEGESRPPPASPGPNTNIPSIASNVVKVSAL
The series is described as above. In kind it is cell-based. The settings on record: CHO K1 cell line, room temperature, 6 point cumulative assay.

A further series deals with T4, IKs (Homo sapiens, UniProt P51787).
T4 construct: expressed in transfected cells; host or cells: Chinese hamster ovary K1 cell line
The series is described as above. Particulars: CHO K1 cell line, room temperature, 6 point cumulative assay. In kind it is cell-based.

For series [3], the system named is COPD HBEC ALI cultures. Description: Paracellular permeability (FITC-dextran) in unchallenged ALI cultures. In kind it is cell-based, human. Particulars: 10 μM basolaterally for eight days, no challenge, four COPD donors, p = 0.0023. As to the method: Passage one cells were seeded into T75 cell culture flasks (250,000 cells/flask) and expanded in PneumaCult ExPlus medium (StemCell Technologies, Vancouver, Canada) at 37°C, 5% CO2. Once cells reached 70% confluency, they were dissociated with TrypLE Express dissociation media (Thermo Fisher Scientific, Waltham, USA) and frozen at -150°C in ExPlus with 10% DMSO. Passage two cells were thawed and seeded (20,000 cells/membrane) into 24-well HTS Transwell plates (Corning, Wiesbaden, Germany) for air-liquid interface (ALI) culturing. Cells were expanded in ExPlus medium until >50% confluent (four days). Apical medium was then removed, and basolateral medium was replaced with PneumaCult ALI medium (StemCell Technologies). Medium was changed three times per week during a four-week long differentiation phase.
The paracellular permeability was determined by using fluorescein isothiocyanate labeled 4kD-dextran (Sigma-Aldrich, St. Louis, USA). 18 hours after addition of 0.2 mg FITC-dextran in 200 μL medium to the apical side of the ALI cultures, the fluorescence in the basolateral medium was measured using PHERAstar FSX (excitation 485 nm and emission 520 nm) (BMG LABTECH, Ortenberg, Germany). The time point was chosen for optimal window in the assays as well as practical reasons and has been kept consistent in between different stimulations throughout this work. […]

Series [4] relates to COPD HBEC ALI cultures. Kind of series: TNF challenge model in ALI, TEER and FITC-dextran permeability. In kind it is cell-based, human. The settings on record: 10 μM, four COPD donors.
The test system of series [5] is COPD HBEC ALI cultures. Description: RNA analysis (qPCR), TNF challenge. In kind it is cell-based, human. As to the method: TEER and permeability were measured after seven days.
To study transcriptional changes, RNA purification was carried out using the RNeasy Plus 96 kit (74192) (Qiagen, Venlo, The Netherlands) according to manufacturer’s protocol. The liquid was collected and frozen at –80°C until further analysis. RNA was quantified and cDNA synthesis was performed according to standard procedures using High-capacity cDNA Reverse Transcription Kit (4368813) (ThermoFisher, Waltham, MA, US). Real-time polymerase chain reaction (qPCR) was done using validated TaqMan® Gene Expression Assays (ThermoFisher, Waltham, MA, US), IL8 (Hs00174103_m1), CCL2 (Hs00234140_m1), CXCL10 (Hs00171042_m1), MMP9 (Hs00957562_m1), IL1B (Hs01555410_m1), MUC5AC (Hs01365616_m1), MUC5B (Hs00861595_m1) with TaqMan Fast Advanced Master Mix (4444557) (Applied Biosystems, Foster City, CA, US). Samples were run in triplicates and analyzed on the QuantStudio^TM 7 Flex Real-Time PCR 384-well System (ThermoFisher Waltham, MA, US). Data was normalized to the housekeeping genes GAPDH (Hs99999905_m1), and RPLP0 (Hs99999902_m1) and delta-delta CT values were plotted (fold change to DMSO).

Where [6] appears, read: 10 μM spiked into cell media, 18 hrs.
Setting [7] is: high concentrations of TNF, 8 days.
Where [8] appears, read: unchallenged cells and 5 ng/ml TNF.

T1 sequence (Q9UQL6 whole entry): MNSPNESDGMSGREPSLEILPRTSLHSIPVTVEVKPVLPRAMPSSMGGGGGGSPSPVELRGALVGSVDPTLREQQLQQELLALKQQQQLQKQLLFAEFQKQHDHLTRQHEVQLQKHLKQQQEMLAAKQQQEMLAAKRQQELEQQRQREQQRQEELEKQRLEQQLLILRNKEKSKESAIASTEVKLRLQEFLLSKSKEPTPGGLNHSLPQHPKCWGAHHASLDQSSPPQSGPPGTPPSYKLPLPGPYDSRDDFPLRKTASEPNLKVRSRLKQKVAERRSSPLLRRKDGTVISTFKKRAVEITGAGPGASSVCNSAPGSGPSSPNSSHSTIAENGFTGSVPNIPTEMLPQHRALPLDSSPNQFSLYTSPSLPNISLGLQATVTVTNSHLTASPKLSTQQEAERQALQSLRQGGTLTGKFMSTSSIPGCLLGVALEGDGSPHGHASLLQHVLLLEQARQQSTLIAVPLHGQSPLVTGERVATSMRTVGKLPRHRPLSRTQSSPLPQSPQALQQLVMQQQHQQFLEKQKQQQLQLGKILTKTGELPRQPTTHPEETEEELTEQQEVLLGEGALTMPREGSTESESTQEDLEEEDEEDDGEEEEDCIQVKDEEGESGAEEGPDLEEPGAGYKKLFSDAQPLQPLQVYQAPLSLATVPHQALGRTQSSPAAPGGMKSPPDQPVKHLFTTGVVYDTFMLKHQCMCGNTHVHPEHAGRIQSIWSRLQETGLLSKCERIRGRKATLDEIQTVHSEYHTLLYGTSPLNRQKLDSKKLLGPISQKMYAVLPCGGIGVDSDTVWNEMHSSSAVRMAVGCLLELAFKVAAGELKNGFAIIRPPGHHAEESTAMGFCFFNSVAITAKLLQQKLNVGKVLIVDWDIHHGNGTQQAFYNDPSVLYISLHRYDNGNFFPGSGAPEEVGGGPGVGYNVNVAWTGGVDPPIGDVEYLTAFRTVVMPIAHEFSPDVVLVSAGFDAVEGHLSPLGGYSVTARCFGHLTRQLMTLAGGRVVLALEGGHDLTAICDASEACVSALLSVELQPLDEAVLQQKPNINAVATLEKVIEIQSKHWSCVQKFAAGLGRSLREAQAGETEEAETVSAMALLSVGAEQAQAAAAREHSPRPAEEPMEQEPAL
T2 sequence (Q12809 whole entry): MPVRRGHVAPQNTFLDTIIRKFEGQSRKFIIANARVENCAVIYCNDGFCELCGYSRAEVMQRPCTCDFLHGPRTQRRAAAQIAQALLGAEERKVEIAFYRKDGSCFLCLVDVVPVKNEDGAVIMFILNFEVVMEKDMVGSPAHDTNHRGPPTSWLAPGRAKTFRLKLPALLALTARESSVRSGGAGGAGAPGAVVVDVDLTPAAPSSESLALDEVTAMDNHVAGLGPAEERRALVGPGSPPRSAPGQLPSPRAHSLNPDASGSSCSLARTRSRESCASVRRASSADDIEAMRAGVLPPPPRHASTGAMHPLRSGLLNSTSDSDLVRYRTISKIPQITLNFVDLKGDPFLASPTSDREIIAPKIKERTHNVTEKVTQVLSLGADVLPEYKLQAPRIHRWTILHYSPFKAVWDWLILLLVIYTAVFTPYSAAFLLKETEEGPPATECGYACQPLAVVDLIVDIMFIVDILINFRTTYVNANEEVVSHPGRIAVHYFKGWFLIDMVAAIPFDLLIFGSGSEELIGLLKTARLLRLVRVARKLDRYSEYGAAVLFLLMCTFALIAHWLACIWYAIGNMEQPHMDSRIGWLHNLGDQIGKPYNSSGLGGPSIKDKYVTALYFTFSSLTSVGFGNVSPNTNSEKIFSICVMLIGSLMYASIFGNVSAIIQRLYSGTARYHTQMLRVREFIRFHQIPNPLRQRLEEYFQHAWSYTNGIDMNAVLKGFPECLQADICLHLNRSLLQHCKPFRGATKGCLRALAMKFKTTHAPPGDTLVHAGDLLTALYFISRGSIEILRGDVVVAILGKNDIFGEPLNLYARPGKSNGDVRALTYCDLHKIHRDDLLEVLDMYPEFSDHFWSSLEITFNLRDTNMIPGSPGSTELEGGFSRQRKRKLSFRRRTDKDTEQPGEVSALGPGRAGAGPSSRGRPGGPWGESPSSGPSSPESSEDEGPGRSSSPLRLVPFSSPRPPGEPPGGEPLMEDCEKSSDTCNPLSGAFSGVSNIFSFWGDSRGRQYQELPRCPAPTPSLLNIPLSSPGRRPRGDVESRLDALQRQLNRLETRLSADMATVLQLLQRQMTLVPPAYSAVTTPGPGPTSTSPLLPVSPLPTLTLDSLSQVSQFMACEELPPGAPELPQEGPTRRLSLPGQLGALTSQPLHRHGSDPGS

Consider ACY-1083, for which the IC50 at HDAC5 turned out to be 4.17 µM. Moreover, in series [1], the free fraction turned out to be 23% and the “stability in human plasma” value is listed as “stable”. In addition, in [2] (10 μM spiked into ALI cell media in a test tube, 37 °C, LC-MSMS), the “drug concentration after 18 hrs” value was around 4 µM. For the same substance, in [2] (setting [6]), the “compound lost in the system” value worked out at 60% and the “remaining after spike test” value is listed as “approximately 40%”. For the same substance, the “activity on hERG” value at hERG is above 30 µM. Also, at Kv4.3, the “activity on Kv4.3” value is above 30 µM. In addition, the “activity on IKs” value on IKs is above 30 µM. In the series with COPD HBEC ALI cultures [3], the “passage of FITC-dextran (paracellular permeability)” value is “significantly reduced”. The “TEER vs DMSO control” value with COPD HBEC ALI cultures [4] (TNF 0, 5, 20 and 50 ng/mL, after seven days) was “higher TEER at all concentrations of TNF”. The “paracellular permeability vs DMSO control” value in the series on COPD HBEC ALI cultures [4] (TNF 5, 20 and 50 ng/mL) is “lower permeability at 5, 20 and 50 ng/mL TNF”. In the series with COPD HBEC ALI cultures [5] (setting [7]), the CXCL10 transcripts result is recorded as “significantly reduced”, the IL1B transcripts entry is reported as “significantly reduced”, the IL6 transcripts result is recorded as “significantly reduced” and the MMP9 transcripts result is given as “significantly reduced”. Besides, in the series on COPD HBEC ALI cultures [5] (higher concentrations of TNF), the “MUC5AC mRNA” value is recorded as “no significant effect” and the “MUC5B mRNA” value is recorded as “no significant effect”. In the series with COPD HBEC ALI cultures [5] (setting [8]), the “MUC5AC mRNA” value is reported as “reduced baseline production” and the “MUC5B mRNA” value was “reduced baseline production”.
